Results taken from PubChem BioAssay AID330 (DTP/NCI, 2004).
Several values for one entry are separate records, joined by “and”; a condition that tells them apart may be missing. Equal values may be shown once. Inconclusive results and toxic doses are left out. The calls were made as follows: active = survival T/C of 150% or more; inactive = T/C below 125% in these data.

System: P388 leukemia ip, CD2F1 mice, survival T/C
Test: NCI In Vivo Anticancer Drug Screen. Data for tumor model P388 Leukemia (intraperitoneal) in CD2F1 (CDF1) mice
Details: endpoint: median survival time, higher = longer survival
How it was run: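 Mice carrying the transplanted tumor received test compound or vehicle. Survival was recorded in each group, and the value is the treated-group measurement divided by that of the vehicle-treated control group.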

[1] = dose: 50.0 mg/kg/injection, schedule: Q01DX009 (ip), vehicle: Klucel (hydroxypropylcellulose) (HPC)
[2] = dose: 100.0 mg/kg/injection, schedule: Q01DX009 (ip), vehicle: Klucel (hydroxypropylcellulose) (HPC)
[3] = dose: 200.0 mg/kg/injection, schedule: Q01DX009 (ip), vehicle: Klucel (hydroxypropylcellulose) (HPC)
[4] = dose: 12.5 mg/kg/injection, schedule: Q04DX003 (ip), vehicle: saline with Tween-80
[5] = dose: 25.0 mg/kg/injection, schedule: Q04DX003 (ip), vehicle: saline with Tween-80
[6] = dose: 50.0 mg/kg/injection, schedule: Q01DX009 (ip), vehicle: saline with Tween-80
[7] = dose: 100.0 mg/kg/injection, schedule: Q01DX009 (ip), vehicle: saline with Tween-80
[8] = dose: 200.0 mg/kg/injection, schedule: Q01DX009 (ip), vehicle: saline with Tween-80
[9] = dose: 60.0 mg/kg/injection, schedule: Q01DX005 (ip), vehicle: Klucel (hydroxypropylcellulose) (HPC)
[10] = dose: 120.0 mg/kg/injection, schedule: Q01DX005 (ip), vehicle: Klucel (hydroxypropylcellulose) (HPC)
[11] = dose: 240.0 mg/kg/injection, schedule: Q01DX005 (ip), vehicle: Klucel (hydroxypropylcellulose) (HPC)
[12] = dose: 60.0 mg/kg/injection, schedule: Q01DX005 (ip), vehicle: saline with Tween-80
[13] = dose: 120.0 mg/kg/injection, schedule: Q01DX005 (ip), vehicle: saline with Tween-80

Measured: T/C

COc1cc(OC)c(NC(=S)NC(C)C)cc1Cl
inactive: [1] 91 % of control | [2] 96 % of control | [3] 99 % of control

CNC(=O)CCC(NS(=O)(=O)c1ccc(NC(C)=O)cc1)C(=O)O (stereo not drawn)
inactive: dose: 100.0 mg/kg/injection, schedule: Q01DX001 (ip), vehicle: Klucel (hydroxypropylcellulose) (HPC) 105 % of control | dose: 200.0 mg/kg/injection, schedule: Q01DX001 (ip), vehicle: Klucel (hydroxypropylcellulose) (HPC) 98 % of control | dose: 400.0 mg/kg/injection, schedule: Q01DX001 (ip), vehicle: Klucel (hydroxypropylcellulose) (HPC) 100 % of control

CCCCCCC(=O)CCCCCCCCCCCCC(=O)OC
inactive: [4] 100 % of control | [5] 100 % of control | dose: 50.0 mg/kg/injection, schedule: Q04DX003 (ip), vehicle: saline with Tween-80 100 % of control

O=[N+]([O-])c1ccc2c(ccn2C2OCC(O)C(O)C2O)c1 (stereo not drawn)
inactive: [6] 94 % of control | [7] 108 % of control | [8] 106 % of control

CCCCCCC(=O)Nc1ncc([N+](=O)[O-])s1
inactive: [1] 106 % of control | [2] 106 % of control | [3] 100 % of control

Cc1ccc(S(=O)(=O)NC(CN)C(=O)O)cc1 (stereo not drawn)
inactive: dose: 25.0 mg/kg/injection, schedule: Q01DX009 (ip), vehicle: other 104 % of control | dose: 50.0 mg/kg/injection, schedule: Q01DX009 (ip), vehicle: other 101 % of control | dose: 100.0 mg/kg/injection, schedule: Q01DX009 (ip), vehicle: other 101 % of control | dose: 200.0 mg/kg/injection, schedule: Q01DX009 (ip), vehicle: other 107 % of control | dose: 400.0 mg/kg/injection, schedule: Q01DX009 (ip), vehicle: other 104 % of control

O=C1c2c(O)cc(O)cc2OC(c2ccc(O)cc2)C1O (stereo not drawn)
inactive: dose: 9.75 mg/kg/injection, schedule: Q01DX009 (ip), vehicle: saline 100 % of control | dose: 19.5 mg/kg/injection, schedule: Q01DX009 (ip), vehicle: saline 101 % of control | dose: 39.0 mg/kg/injection, schedule: Q01DX009 (ip), vehicle: saline 102 % of control

CCC(=O)CC1(C(=O)OC)NC(=S)NC(=O)C1C#N (stereo not drawn)
inactive: [9] 102 % of control | [10] 103 % of control | [11] 100 % of control

Cc1ccc(S(=O)(=O)OC2CCN(C(=O)OCc3ccccc3)CC2)cc1
inactive: [6] 95 % of control | [7] 98 % of control | [8] 98 % of control

NC(=O)C(N)CCCC1NC(=S)N(c2ccccc2)C1=O (stereo not drawn)
inactive: [9] 92 % of control | [10] 93 % of control | [11] 86 % of control

O=C(O)c1ccccc1C(=O)c1ccc(CBr)cc1
inactive: dose: 1.56 mg/kg/injection, schedule: Q01DX009 (ip), vehicle: saline with Tween-80 109 % of control | dose: 3.13 mg/kg/injection, schedule: Q01DX009 (ip), vehicle: saline with Tween-80 109 % of control | dose: 6.25 mg/kg/injection, schedule: Q01DX009 (ip), vehicle: saline with Tween-80 109 % of control and 113 % of control | dose: 6.25 mg/kg/injection, schedule: Q04DX003 (ip), vehicle: saline with Tween-80 91 % of control | [4] 95 % of control | [5] 108 % of control

CC(=O)/C(=C\c1c(Cl)cccc1Cl)C(=O)CCN(C)C
inactive: dose: 7.5 mg/kg/injection, schedule: Q01DX005 (ip), vehicle: saline 120 % of control | dose: 15.0 mg/kg/injection, schedule: Q01DX005 (ip), vehicle: saline 117 % of control | dose: 30.0 mg/kg/injection, schedule: Q01DX005 (ip), vehicle: saline 117 % of control

CCc1ccccc1NC(=O)C(C#N)C1=C(Cl)C(=O)c2ccccc2C1=O (stereo not drawn)
inactive: [12] 113 % of control | [13] 106 % of control

O=C1CCC2C(C3SCCCS3)=CCN12 (stereo not drawn)
inactive: [12] 97 % of control | [13] 95 % of control | dose: 240.0 mg/kg/injection, schedule: Q01DX005 (ip), vehicle: saline with Tween-80 101 % of control

Oc1cc(O)c2c(c1)OC(c1ccc(O)c(O)c1)C(O)C2O (stereo not drawn)
inactive: dose: 50.0 mg/kg/injection, schedule: Q01DX005 (ip), vehicle: saline + Tween-80 + alcohol 98 % of control | dose: 100.0 mg/kg/injection, schedule: Q01DX005 (ip), vehicle: saline + Tween-80 + alcohol 98 % of control | dose: 200.0 mg/kg/injection, schedule: Q01DX005 (ip), vehicle: saline + Tween-80 + alcohol 92 % of control

O=[N+]([O-])c1ccc(N/N=C/CCl)c([N+](=O)[O-])c1
inactive: dose: 11.0 mg/kg/injection, schedule: Q04DX003 (ip), vehicle: Klucel (hydroxypropylcellulose) (HPC) 100 % of control | dose: 11.0 mg/kg/injection, schedule: Q04DX003 (ip), vehicle: saline with Tween-80 108 % of control | dose: 16.5 mg/kg/injection, schedule: Q04DX003 (ip), vehicle: Klucel (hydroxypropylcellulose) (HPC) 100 % of control | dose: 16.5 mg/kg/injection, schedule: Q04DX003 (ip), vehicle: saline with Tween-80 100 % of control | dose: 25.0 mg/kg/injection, schedule: Q04DX003 (ip), vehicle: Klucel (hydroxypropylcellulose) (HPC) 98 % of control | [5] 108 % of control | dose: 37.5 mg/kg/injection, schedule: Q04DX003 (ip), vehicle: Klucel (hydroxypropylcellulose) (HPC) 97 % of control | dose: 37.5 mg/kg/injection, schedule: Q04DX003 (ip), vehicle: saline with Tween-80 104 % of control

CNC(C(=O)OC(C)(C)C)C(C)C (stereo not drawn)
inactive: dose: 25.0 mg/kg/injection, schedule: Q01DX005 (ip), vehicle: saline 98 % of control | dose: 50.0 mg/kg/injection, schedule: Q01DX005 (ip), vehicle: saline 99 % of control | dose: 100.0 mg/kg/injection, schedule: Q01DX005 (ip), vehicle: saline 99 % of control

Cc1cc(Cl)cc2c1OCOC2
inactive: dose: 50.0 mg/kg/injection, schedule: Q01DX009 (ip), vehicle: acetone 101 % of control | dose: 100.0 mg/kg/injection, schedule: Q01DX009 (ip), vehicle: acetone 102 % of control

c1ccc(CCc2cccc3ccccc23)nc1
inactive: dose: 50.0 mg/kg/injection, schedule: Q01DX005 (ip), vehicle: saline with Tween-80 98 % of control | dose: 100.0 mg/kg/injection, schedule: Q01DX005 (ip), vehicle: saline with Tween-80 96 % of control | dose: 200.0 mg/kg/injection, schedule: Q01DX005 (ip), vehicle: saline with Tween-80 100 % of control

Cc1ccccc1N1C(=O)OC(C)C1=O (stereo not drawn)
inactive: dose: 100.0 mg/kg/injection, schedule: Q01DX001 (ip), vehicle: saline with Tween-80 97 % of control | dose: 200.0 mg/kg/injection, schedule: Q01DX001 (ip), vehicle: saline with Tween-80 109 % of control | dose: 400.0 mg/kg/injection, schedule: Q01DX001 (ip), vehicle: saline with Tween-80 94 % of control
